Entries after “also recorded” stand apart in the source; their conditions may differ.

Data set [1] concerns mammary tumors. In words: MPA/DMBA-induced mammary tumorigenesis in mice exposed in utero to EE2 or GEN, with or without adult HDAC+DNMT inhibitors. Particulars: mouse, in vivo. Here is the method:
Time pregnant C57BL/6 female mice were obtained from Harlan (Harlan-Teclad, USA) on gestation day 6, and were randomly assigned into three groups on the following day (gestation day 7). The basic diet formulation in the study was a semi-purified AIN93G (the American Institute of Nutrition) modified to replace soy oil for corn oil; all the diets of the three treatment groups were also purchased from Harlan. The diets were isocaloric, as ethinyl estradiol (EE2) or genistein (GEN) were added in the diet at the expense of comstarch. Additions to the basic diet were as follows: 1) EE2 0.1 ppm, and 2) GEN 500 ppm. EE2 was purchased from Sigma Chemicals (St. Louis, Mo., USA), and GEN was a gift from Dr. William Helferich (University of Illinois, Urbana, Ill., USA).
The pregnant dams were fed these diets until the day of the delivery of their pups (Post Natal Day 0, PND 0). Starting on PND 0, all mice were fed the control diet until the end of the study. Female mice born from the dams fed with the different above mentioned diets were used in the subsequent studies. For study outline, see FIG. 12. Animals were housed in a temperature- and humidity-controlled room under a 12-hour light-dark cycle. All animal procedures were approved by the Georgetown University Animal Care and Use Committee, and the experiments were performed following the National Institutes of Health guidelines for the proper and humane use of animals in biomedical research.
Mammary tumors were induced by administration of a subcutaneous injection of Medroxyprogesterone Acetate (MPA) to mice at 6 weeks of age, followed by administration of 1 mg 7,12-dimethylbenz(a)anthracene (DMBA) (Sigma, St. Louis, Mo.) weekly for four weeks (weeks 7, 8, 9, 10) (23). The carcinogen was dissolved in corn oil and administered by oral gavage in a volume of ca. 0.1 ml.
One week after the last dose of DMBA was administered, some of the mice were started on hydralazine (5 mg/kg/day) and valproic acid treatments (1.16 g/kg/day) treatments.
The two compounds were given in a drinking water, which was prepared fresh twice a week. The doses were chosen based on the literature (24-26). The number of animals in each group is as follows: Control n=18, Control given HDAC+DNMT inhibitors n=9, EE2 n=9, EE2 given HDAC+DNMT inhibitors n=6, GEN n=14, and GEN given HDAC+DNMT inhibitors n=8.
Mice were examined for mammary tumors by palpation once per week. Tumor growth was monitored for 16 weeks after the last dose of DMBA administration. During the follow-up, animals in which tumor burden approximated 10% of total body weight were euthanized, as required by the ethical guidelines of our institution. All surviving animals were sacrificed at that point for sample collection. The end-points for tumor data analysis were (i) latency to tumor appearance, (ii) the number of animals with tumors (tumor incidence), and (iii) the cumulative tumor area (tumor burden). The latter was achieved by adding the total tumor area per group each week and dividing it with the number of mice in the group.
Mammary tumor latency was compared with the final tumor burden in utero EE2 and GEN exposed mice to control mice, and in utero EE2 and GEN exposed mice to control mice exposed to HDAC+DNMT inhibitors separately; analysis was done using one-way ANOVA. Cumulative tumor burden during 16 weeks of tumor monitoring in the three groups, separately in those mice not given HDAC+DNMT inhibitors and those treated with the epigenetic drugs, was analysed using repeated measures one-way ANOVA. Log rank analysis was performed to compare mammary tumor incidence in the control and in utero EE2 and GEN exposed mice, again separately in those mice not given HDAC+DNMT inhibitors and those treated with the epigenetic drugs. Data for changes in DNMT1 expression among the groups in the mammary glands and tumors were assessed using two-way ANOVA, followed by Fisher LSD test

The nature of data set [2]: Body weight and growth of in utero exposed pups. The class given is in vivo, C57BL/6 mice. The conditions noted are these: mouse, in vivo. The source says: (§1) Additions to the basic diet were as follows: 1) cornstarch [control]; 2) EE2 0.1 ppm; 3) BPA 0.155 ppm; 4) GEN 500 ppm.
The nature of data set [3]: Puberty onset (vaginal opening) of female mice exposed in utero. The data set is classed as in vivo, C57BL/6 mice. Here is the method:
To assess possible changes in sexual maturation due to in utero ECD exposures during embryogenesis, the day of puberty onset was recorded, as defined based on vaginal opening (VO) in female mice. The mice were examined once a day starting on PND 21. In sexually mature mice, the stage of estrus cycle was determined based on the cytology of their vaginal smear (sampled by pipetting 20 μl PBS in and out of vagina onto a slide) as judged under the microscope. Stage of estrus cycle was determined for each mouse before necropsy and sample collection.

Data set [4] is described as follows: Immediate adverse effects of dietary exposure in adult non-pregnant littermates of dams. The data set is classed as in vivo, mice. Particulars: last day of dietary exposure, data not shown. As to the method:
For ethical reasons non-pregnant littermate females were used for blood collection instead of the dams, and the samples were taken on the last day of their dietary exposure. Blood was collected by heart puncture of anesthetized mice prior to euthanasia, and serum was separated by centrifugation (1000×g for 10 min) and stored frozen until hormone measurements.
In addition, possible immediate adverse effects of EE2, BPA and GEN exposure for adult mice were evaluated using the non-pregnant littermates of dams. Their body weights were recorded and the mammary gland morphology examined on the last day of their dietary exposure.

Data set [5] relates to mammary tumors. In words: MPA/DMBA mammary tumorigenesis in mice exposed in utero to EE2, GEN or BPA (Example 5). The conditions noted are these: mouse, in vivo. The class given is in vivo, C57BL/6 mice.
Text: as §1

The subject of data set [6] is mammary gland. Description: Number of terminal end buds (TEBs) in mammary whole mounts of F1-F3 rat offspring. The data set is classed as in vivo, Sprague-Dawley rats. Particulars: mean±s.e.m. Here is the method:
Whole mounts (n=5-6 per group and age) were examined under the microscope and evaluated as described before (28) to assess the number of terminal end buds (TEBs). Results were analyzed by t-test (or Mann-Whitney Rank Sum test) or one-ANOVA (when comparing outcross groups in F2 generation). Where appropriate, between groups comparisons after ANOVA were done by Holm-Sidak multi-comparison procedure.

For data set [7], the system named is CYP1B1. Description: CYP1B1 expression (qRT-PCR) in mammary glands of F1-F3 rat offspring. The data set is classed as in vivo, Sprague Dawley rats. As to the method: Mammary gland tissue obtained from 50-day-old F1-F3 generation offspring (n=5-6 per group per generation) were used. 1 μg of total RNA per sample was used as a template for random primed cDNA synthesis. The cDNA samples were used as templates for qRT-PCR analysis with specific primers for the target gene, rat CYP1B1 using QuantiTect SYBR green PCR kit (Qiagen Inc., Valencia, Calif.) and an ABI Prism 7900 Sequence Detection System. Each sample was run in triplicate. Absolute gene expression levels were determined using Applied Biosystems' SDS2.3 software and the standard curve method. Concentration of each sample was normalized to the reference gene 18S rRNA.

Data set [8] relates to DNA adducts. In words: MDA-DNA adduct levels in mammary glands of F1-F3 rat offspring. The class given is in vivo, Sprague Dawley rats. The conditions noted are these: F1-F3 generation offspring.
Where [9] appears, read: Con x EE2 outcross (F2 generation).
[10] abbreviates: EE2 x Con outcross (F2 generation).
Setting [11] is: maternal EE2 diet 0.1 ppm, F1 generation.
Setting [12] is: maternal EE2 diet, F2 generation.
[13] abbreviates: maternal EE2 diet, F3 generation.

For the compound `C#C[C@]1(O)CC[C@H]2[C@@H]3CCc4cc(O)ccc4[C@H]3CC[C@@]21C` [EE2, ethinyl estradiol], in data set [1], the “Final tumor burden per mouse” value is “significantly higher”. Also, the Mammary tumor incidence entry in data set [1] was “significantly higher”. In data set [1], the mammary tumorigenesis entry was “increased mammary tumorigenesis”. Besides, the “birthweight, or postnatal weight development” value in data set [2] was “did not alter”. Moreover, the “puberty onset / vaginal opening” value in data set [3] (female offspring, in utero exposure) is on record as “significantly earlier puberty onset; also recorded: significantly accelerated”. Moreover, in data set [3] (female pups, instead of PND 32), the puberty onset was found to be 27 PND. The “body weight or mammary epithelial development” value in data set [4] was “No significant differences”. Moreover, in data set [5], the “mammary tumorigenesis (onset of tumor growth and cumulative tumor burden)” value is on record as “Enhanced mammary tumorigenesis”. For the same compound, the “Number of TEBs PND 21” value is on record as 19.4 ± 1.5 in data set [6] (setting [9]); 32.7 ± 3.6 in data set [6] (setting [10]); 25.3 ± 1.3 in data set [6] (setting [11]); 30.8 ± 1.9 in data set [6] (setting [12]); 33.0 ± 2.1 in data set [6] (setting [13]). For the same compound, the “Number of TEBs PND 50” value in data set [6] (setting [9]) is listed as 11.0 ± 1.2; in data set [6] (setting [10]), 22.8 ± 1.6; in data set [6] (setting [11]), 32.5 ± 2.3; in data set [6] (setting [12]), 22.2 ± 3.8; in data set [6] (setting [13]), 28.7 ± 3.4. The “CYP1B1 expression in normal mammary glands” value in data set [7] (F1-F3 generation offspring) is given as “up-regulated”. For the same compound, in data set [7] (F1 and F2 generations, vs control or HF offspring), the “expression levels of CYP1B1” value was “significantly higher”. Moreover, in data set [7] (F3 generation, vs controls), the CYP1B1 expression levels result was “higher than in the controls”. The “DNA adduct formation by measuring MDA levels” value in data set [8] was “mimicked the findings of changes in CYP1B1 expression”.

The values are drawn from patent US20130324543A1, “REVERSAL OF HIGH BREAST CANCER RISK IN MAMMALS EXPOSED TO ESTROGENIC CHEMICALS IN UTERO BY ADULT EXPOSURE TO HDAC AND DNMT INHIBITORS” (Georgetown University, priority 2012, published 2013).
